According to US9061030B2, “sGC stimulators” (IRONWOOD PHARMACEUTICALS, INC., priority 2010, dated 2015):

Experiments:
[1] = target: T1, Human soluble guanylate cyclase enzyme (hsGC) (Homo sapiens, UniProt Q02108+Q02153); assay: Purified human sGC enzyme activity assay (with or without SNP); assay type: biochemical; details: 30 μM compound; for sGC Enzyme Activity Increase at 30 μM with SNP: 1 μM SNP, specific activity vs DMSO and SNP; for sGC Enzyme Activity Increase at 30 μM without SNP: specific activity vs DMSO control
T1 construct: purchased Enzo Inc. ALX-201-177
T1 sequence (Q02153 1-619): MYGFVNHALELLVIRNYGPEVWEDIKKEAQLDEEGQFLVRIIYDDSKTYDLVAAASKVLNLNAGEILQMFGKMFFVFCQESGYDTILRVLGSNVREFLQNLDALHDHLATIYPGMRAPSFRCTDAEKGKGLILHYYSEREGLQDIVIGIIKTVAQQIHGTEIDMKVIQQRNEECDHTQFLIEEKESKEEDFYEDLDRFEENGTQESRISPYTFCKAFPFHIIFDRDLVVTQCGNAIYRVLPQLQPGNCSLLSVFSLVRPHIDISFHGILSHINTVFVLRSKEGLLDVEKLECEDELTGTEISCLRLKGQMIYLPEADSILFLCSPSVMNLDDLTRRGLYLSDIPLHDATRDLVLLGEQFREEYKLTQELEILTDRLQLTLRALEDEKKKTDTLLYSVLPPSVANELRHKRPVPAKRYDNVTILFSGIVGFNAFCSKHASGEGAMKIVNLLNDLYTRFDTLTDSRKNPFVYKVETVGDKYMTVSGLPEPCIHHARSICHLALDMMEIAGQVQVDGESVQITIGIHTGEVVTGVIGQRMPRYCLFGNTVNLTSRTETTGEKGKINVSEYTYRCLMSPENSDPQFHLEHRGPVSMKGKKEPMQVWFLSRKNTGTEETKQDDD
T1 sequence (Q02108 1-690): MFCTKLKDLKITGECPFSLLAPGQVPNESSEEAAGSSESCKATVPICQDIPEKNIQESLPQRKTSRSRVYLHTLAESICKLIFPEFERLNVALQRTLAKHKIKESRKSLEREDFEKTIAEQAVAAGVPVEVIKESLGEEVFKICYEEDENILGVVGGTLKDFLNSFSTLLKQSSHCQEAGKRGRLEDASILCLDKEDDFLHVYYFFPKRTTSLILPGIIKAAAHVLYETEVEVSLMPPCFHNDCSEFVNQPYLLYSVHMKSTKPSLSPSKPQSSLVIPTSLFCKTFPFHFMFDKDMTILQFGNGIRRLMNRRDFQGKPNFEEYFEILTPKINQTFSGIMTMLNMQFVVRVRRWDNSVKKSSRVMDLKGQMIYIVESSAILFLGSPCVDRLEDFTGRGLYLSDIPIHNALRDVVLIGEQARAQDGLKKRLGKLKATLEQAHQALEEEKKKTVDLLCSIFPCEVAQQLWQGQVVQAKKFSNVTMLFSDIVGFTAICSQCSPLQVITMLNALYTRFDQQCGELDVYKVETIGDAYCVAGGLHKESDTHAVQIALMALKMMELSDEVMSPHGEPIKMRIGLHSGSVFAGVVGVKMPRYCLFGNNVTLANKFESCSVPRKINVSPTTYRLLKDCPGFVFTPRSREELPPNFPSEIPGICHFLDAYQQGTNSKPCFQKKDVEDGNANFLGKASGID
Procedure: Human soluble guanylate cyclase enzyme (hsGC) obtained from Enzo Inc. (P/N: ALX-201-177) was used to evaluate the activity of test compounds. The assay reactions contained 0.1 M Tris (pH 8.0), 0.5 mg/mL BSA (pH 8.0), 2 mM DTT, 2 mM MgCl2, 300 μM GTP, 1 mM 3-isobutyl-1-methylxanthine (IBMX) and 5 ng human soluble guanylate cyclase enzyme. Test compounds in DMSO were then added (2 μL, 10 or 30 μM final concentration) and incubated (200 μL, 96-well plate format) at 37° C. for 30 minutes. The controls were carried out using 2 μL DMSO. After the 30 minute incubation, the reaction was stopped with the addition of 200 μL of cold methanol. The plate was then centrifuged at 3,200 rpm for 10 minutes at room temperature. Supernatants (200 μL) were collected and transferred to a new 96 well plate for analysis.
An 8 point cGMP (Sigma-Aldrich P/N: G6129) standard curve was prepared in assay buffer ranging from 0.156-20 μM. Samples for the cGMP standard curve were then diluted with an equal volume of methanol resulting in final cGMP concentrations of 0.078-10 μM.
The cGMP standard curve was generated using GraphPad Prism Software.
Calculations: Specific Activity was determined by the amount of cGMP formed (nmoles) per mg of sGC per min. Enzyme activity “fold-change” was calculated by dividing the Specific Activity for a test compound by the Specific Activity of DMSO control.
The enzymatic activity fold-change of the purified human sGC enzyme determined in the presence of each of the test compounds individually at 10 or 30 μm without the addition of sodium nitroprusside (SNP), a nitric oxide donor, is presented in Table 5.
Enzyme assays were also performed as described above, but in the presence of 1 μM sodium nitroprusside (SNP). Enzymatic activity fold-changes are reported for selected test compounds in the presence of both SNP and the test compound. These were calculated by dividing the specific activity (activity increase) for the test compound dissolved in DMSO and SNP over the specific activity for the mixture of DMSO and SNP.

[2] = target: T2, soluble guanylate cyclase (sGC) (Homo sapiens, UniProt Q02108+Q02153); assay: sGC-HEK-cGMP assay; assay type: cell-based; details: HEK293 cells, 10 μM SNP, percentage of sGC activity obtained with positive control BAY 41-2272 (= 100%); for Emax at 10 µM: compound at 10 μM; for Emax at 30 µM: compound at 30 μM
T2 construct: endogenously expressing soluble guanylate cyclase (sGC); endogenous in cells; host or cells: HEK293
T2 sequence (Q02153 1-619): T1 sequence (Q02153 1-619)
T2 sequence (Q02108 1-690): T1 sequence (Q02108 1-690)
Procedure: Human embryonic kidney cells (HEK293), endogenously expressing soluble guanylate cyclase (sGC), were used to evaluate the activity of the test compounds. Compounds stimulating the sGC receptor should cause an increase in the intracellular concentration of cGMP. HEK 293 cells were seeded in Dulbecco's Modification of Eagle's Medium supplemented with fetal bovine serum (10% final) and L-glutamine (2 mM final) in a 200 μL volume at a density of 1×10^5 cells/well in a poly-D-lysine coated 96 well flat bottom plate and grown overnight at 37° C. Medium was aspirated and cells were washed with 1× Hank's Buffered Saline Salt Solution (200 μL). Cells were then incubated for 15 minutes at 37° C. with 0.5 mM 3-isobutyl-1-methylxanthine (200 μL). Test article was then added to the assay mixture (2 μL) and incubated in the presence of 10 μM Sodium Nitroprusside (SNP) at 37° C. for 10 minutes. After the 10 minute incubation, the assay mixture was aspirated and 0.1M HCl (200 μL) was added to the cells. The plate was incubated at 4° C. for 30 minutes in the 0.1M HCl to stop the reaction and lysed the cells. The plates were then centrifuged at 1,200 g for 5 minutes at room temperature. Supernatants were collected and transferred to a new flat bottom 96 well plate for analysis. Vehicle controls were carried out using DMSO (1%). A known sGC stimulator, BAY 41-2272, was used as the positive control.
Samples were diluted with an equal volume of 1 M Ammonium Acetate (pH 7) to neutralize samples for better chromatography. A 2×cGMP standard curve was prepared in 0.1 M HCl and then diluted with an equal volume of 1 M Ammonium Acetate, with the following final concentrations in nM: 1024, 512, 256, 128, 64, 32, 16, 8, 4, 2, 1.cGMP concentrations were determined from each sample using the LC/MS conditions (Table 2 below) and calculated standard curve. EC50 values were calculated from concentration-response curves generated with GraphPad Prism Software.
The biological activities of some of the compounds according to Formula IA or Formula IB determined with the sGC-HEK assay are summarized in Table 3 below.

Row | sGC Enzyme Activity Increase at 30 μM with SNP [1] | sGC Enzyme Activity Increase at 30 μM without SNP [1] | Emax at 10 µM [2] | Emax at 30 µM [2] | Structure (SMILES)
1 | D (D = 5 to <10 fold increase) | C (C = 2 to <5 fold increase) | 40 to 60% | 60 to 80% | Fc1ccccc1Cn1nc(-c2ccccn2)nc1-c1ccon1 [Compound I-58, 3-(1-(2-fluorobenzyl)-3-(pyridin-2-yl)-1H-1,2,4-triazol-5-yl)isoxazole]
2 | C (C = 2 to <5 fold increase) | B (B = 1 to <2 fold increase) | 0 to 5% | 0 to 5% | Fc1ccccc1Cn1nc(-c2nccs2)nc1-c1ncccn1 [Compound I-29]
3 | C (C = 2 to <5 fold increase) | B (B = 1 to <2 fold increase) | 0 to 5% | 0 to 5% | Nc1nc(-c2nc(-c3nccs3)n(Cc3ccccc3F)n2)nc(N)c1N [Compound I-57, 2-(1-(2-fluorobenzyl)-5-(thiazol-2-yl)-1H-1,2,4-triazol-3-yl)pyrimidin-4,5,6-triamine]
4 | C (C = 2 to <5 fold increase) | C (C = 2 to <5 fold increase) | 0 to 5% | 10 to 20% | Fc1ccccc1Cn1nc(-c2ncccn2)nc1-c1ccccn1 [Compound I-32]
5 | C (C = 2 to <5 fold increase) | B (B = 1 to <2 fold increase) | 0 to 5% | 0 to 5% | COC(=O)c1nc(-c2ccccn2)nn1Cc1ccccc1F [Compound I-35, methyl 1-(2-fluorobenzyl)-3-(pyridin-2-yl)-1H-1,2,4-triazole-5-carboxylate]
6 | D (D = 5 to <10 fold increase) | B (B = 1 to <2 fold increase) | 60 to 80% | 20 to 40% | Fc1ccccc1Cn1nc(-c2nccs2)nc1-c1cocn1 [Compound I-63]
7 | A (A = no increase to <1 fold increase) | A (A = no increase to <1 fold increase) | 0 to 5% | 0 to 5% | Fc1ccccc1Cn1nc(-c2ncccn2)nc1-c1ccon1 [Compound I-59, 3-(1-(2-fluorobenzyl)-3-(pyrimidin-2-yl)-1H-1,2,4-triazol-5-yl)isoxazole]
8 | C (C = 2 to <5 fold increase) | B (B = 1 to <2 fold increase) | 10 to 20% | 0 to 5% | Fc1ccccc1Cn1nc(-c2cccc(Br)n2)nc1-c1nccs1 [Compound I-19, 2-(3-(6-bromopyridin-2-yl)-1-(2-fluorobenzyl)-1H-1,2,4-triazol-5-yl)thiazole]
9 | D (D = 5 to <10 fold increase) | C (C = 2 to <5 fold increase) | 10 to 20% | 20 to 40% | Fc1ccccc1Cn1nc(-c2nccs2)nc1-c1cc(Br)ccn1 [Compound I-37, 2-(5-(4-bromopyridin-2-yl)-1-(2-fluorobenzyl)-1H-1,2,4-triazol-3-yl)thiazole]
10 | C (C = 2 to <5 fold increase) | B (B = 1 to <2 fold increase) | 0 to 5% | 0 to 5% | Fc1ccccc1Cn1nc(-c2ccccn2)nc1-c1ncccn1 [Compound I-31]
11 | B (B = 1 to <2 fold increase) | C (C = 2 to <5 fold increase) | 0 to 5% | 0 to 5% | Fc1ccccc1Cn1nc(-c2ncco2)nc1-c1ncccn1 [Compound I-8]
12 | D (D = 5 to <10 fold increase) | C (C = 2 to <5 fold increase) | 10 to 20% | 10 to 20% | Fc1ccccc1Cn1nc(-c2nccs2)nc1-c1ccccn1 [Compound I-26]
13 | C (C = 2 to <5 fold increase) | B (B = 1 to <2 fold increase) | 5 to 10% | 5 to 10% | Fc1ccc(-c2nc(-c3nccs3)nn2Cc2ccccc2F)nc1 [Compound I-39]
14 | B (B = 1 to <2 fold increase) | B (B = 1 to <2 fold increase) | 0 to 5% | 0 to 5% | Fc1ccccc1Cn1nc(-c2ncccn2)nc1-c1ccccc1 [Compound I-27]
15 | B (B = 1 to <2 fold increase) | B (B = 1 to <2 fold increase) | 0 to 5% | 0 to 5% | Cc1nc(-c2ncccn2)nn1Cc1ccccc1F [Compound I-28]
16 | B (B = 1 to <2 fold increase) | B (B = 1 to <2 fold increase) | 0 to 5% | 5 to 10% | Fc1ccccc1Cn1nc(-c2ncco2)nc1-c1ccccn1 [Compound I-7]
